Reference: patent US6953785B2, “Estra-1,3,5(10)-triene derivatives” (priority 2000, dated 2005)
pIC50: −log10 of the molar value.

Legend:
[1] = molecular target: T1, recombinant human estrone sulfatase (Homo sapiens, UniProt P08842); assay: Estrone sulfatase (steroid sulfatase) inhibition test (Method B), 4-methylumbelliferyl sulfate substrate; format: biochemical; conditions: 4-methylumbelliferyl sulfate 0.3 mmol/L, pH 7.5, 37° C., 1 hour, read-out: Inhibitory Activity against Steroid Sulfatase IC50
T1 sequence (P08842 22-583): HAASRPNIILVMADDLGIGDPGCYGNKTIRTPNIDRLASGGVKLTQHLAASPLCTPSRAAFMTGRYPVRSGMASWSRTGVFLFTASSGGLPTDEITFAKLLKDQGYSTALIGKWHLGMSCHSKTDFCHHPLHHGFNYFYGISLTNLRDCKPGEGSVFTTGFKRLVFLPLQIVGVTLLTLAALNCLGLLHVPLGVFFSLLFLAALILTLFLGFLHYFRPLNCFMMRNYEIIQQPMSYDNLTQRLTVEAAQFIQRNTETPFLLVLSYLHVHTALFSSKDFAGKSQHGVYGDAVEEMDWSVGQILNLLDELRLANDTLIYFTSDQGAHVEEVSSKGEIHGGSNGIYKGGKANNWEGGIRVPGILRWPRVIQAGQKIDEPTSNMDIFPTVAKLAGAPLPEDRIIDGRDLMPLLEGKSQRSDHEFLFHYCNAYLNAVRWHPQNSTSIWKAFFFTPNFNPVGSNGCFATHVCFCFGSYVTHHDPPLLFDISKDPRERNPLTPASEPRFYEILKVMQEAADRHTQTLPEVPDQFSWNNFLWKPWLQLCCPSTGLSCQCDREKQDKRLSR
Procedure: Estrone Sulfatase (Steroid Sulfatase) Inhibition Test (Method B)
4-Methylumbelliferyl sulfate (final concentration 0.3 mmol/L), recombinant human estrone sulfatase (7.8 ng/well) and an estra-1,3,5(10)-triene derivative of each test concentration (the estra-1,3,5(10)-triene derivative was dissolved in 0.001 mL of DMSO) were added to a phosphate buffer (pH 7.5, final volume 0.1 mL) containing 0.28 mol/L of sucrose and 0.04 mol/L of nicotinamide, and the mixture was subjected to enzymatic reaction at 37° C. for 1 hour. The recombinant human estrone sulfatase used herein was prepared from CHO (Chinese hamster ovary) cells, which were transfected with a human estrone sulfatase gene, after partial purification. After the enzymatic reaction, an aqueous solution of 2 mol/L glycine-sodium hydroxide (pH 10.3, 0.13 mL) was added thereto followed by stirring. Using a fluorescent plate reader (Cyto Fluor II), the fluorescent intensity of 4-methylumbelliferone formed in the system was measured. The measurement was carried out at one time by duplication, and the assay fluctuation was 10% or less. The enzymatic reaction in the absence of the test compound was also carried out simultaneously. The inhibitory activity against estrone sulfatase of the test compound of each concentration was calculated according to the equation shown below. Inhibitory Activity against Estrone Sulfatase (%)=100−[100×(A/B)] wherein; • A: the amount of 4-methylumbelliferone formed in the presence of the test compound, • B: the amount of 4-methylumbelliferone formed in the absence of the test compound.
(§1) The inhibitory activity against estrone sulfatase of the estra-1,3,5(10)-triene derivative tested can be designated by the concentration (IC50) of the derivative that reduces the estrone sulfatase activity to a half of that in the control system not containing the test compound.

[2] = molecular target: T1, recombinant human estrone sulfatase; assay: Estrone sulfatase (steroid sulfatase) inhibition test (Method A), [3H]-estrone sulfate substrate; format: biochemical; conditions: [6,7-3H]-estrone sulfate 6.67 μmol/L, pH 7.5, 37° C., 30 minutes, read-out: Inhibitory Activity against Steroid Sulfatase IC50
Procedure: Estrone Sulfatase (Steroid Sulfatase) Inhibition Test (Method A)
[6,7-^3H]-Estrone sulfate (final concentration 6.67 μmol/L; 0.025 μCi/tube), recombinant human estrone sulfatase (33 ng/tube) and an estra-1,3,5(10)-triene derivative of each test concentration (the estra-1,3,5(10)-triene derivative was dissolved in 0.003 mL of DMSO) were added to a phosphate buffer (pH 7.5, final volume 0.15 mL) containing 0.25 mol/L of sucrose and 0.04 mol/L of nicotinamide, and the mixture was subjected to enzymatic reaction at 37° C. for 30 minutes. The recombinant human estrone sulfatase used herein was prepared from CHO (Chinese hamster ovary) cells, which were transfected with a human estrone sulfatase gene, after partial purification. After the enzymatic reaction, toluene (0.5 mL) was added to the reaction mixture followed by stirring, and the mixture was centrifuged at 9000 rpm for 5 minutes. The toluene extract layer was taken out, and the radioactivity of the [^3H]-estrone formed therein was measured with a liquid scintillation counter. The measurement was carried out at one time by duplication, and the assay fluctuation was 10% or less. The enzymatic reaction in the absence of the test compound was also carried out simultaneously. The inhibitory activity against estrone sulfatase of the test compound of each concentration was calculated according to the equation shown below. Inhibitory Activity against Estrone Sulfatase (%)=100−{100×[(A−C)/(B−C)]} wherein; • A: the amount of [^3H]-estrone formed in the presence of the test compound • B: the amount of [^3H]-estrone formed in the absence of the test compound • C: the amount of [^3H]-estrone formed in the absence of both of the recombinant human estrone sulfatase and the test compound.
as §1

SMILES	pIC50 [1]	pIC50 [2]
CC12CCC3c4ccc(OS(N)(=O)=O)cc4CCC3C1CCC2CC(=O)N1CCOCC1 (stereo not drawn) [Compound 88]	7.96	–
CC12CCC3c4ccc(OS(N)(=O)=O)cc4CCC3C1CC=C2C(=O)NNc1ccccn1 (stereo not drawn) [Compound 69]	8.22	–
CC12CCC3c4ccc(OS(N)(=O)=O)cc4CCC3C1CC=C2C(=O)Nc1ccccc1 (stereo not drawn) [Compound 34]	–	8.00
CC12CCC3c4ccc(OS(N)(=O)=O)cc4CCC3C1CC=C2C(=O)Nc1cnccn1 (stereo not drawn) [Compound 40]	–	8.03
CCCNC(=O)CC1CCC2C3CCc4cc(OS(N)(=O)=O)ccc4C3CCC12C (stereo not drawn) [Compound 85]	7.99	–
CCCNC(=O)C=C1CCC2C3CCc4cc(OS(N)(=O)=O)ccc4C3CCC12C (stereo not drawn) [Compound 81]	–	8.21
CCOC(=O)CC1CCC2C3CCc4cc(OS(N)(=O)=O)ccc4C3CCC12C (stereo not drawn) [Compound 83]	7.92	–
COc1ccnc(CNC(=O)C2=CCC3C4CCc5cc(OS(N)(=O)=O)ccc5C4CCC23C)c1 (stereo not drawn) [Compound 47]	8.30	–
Cc1cnc(CNC(=O)C2=CCC3C4CCc5cc(OS(N)(=O)=O)ccc5C4CCC23C)cn1 (stereo not drawn) [Compound 49]	7.62	–
CC12CCC3c4ccc(OS(N)(=O)=O)cc4CCC3C1CC=C2C(=O)Nc1ccon1 (stereo not drawn) [Compound 58]	7.96	–
CC12CCC3c4ccc(OS(N)(=O)=O)cc4CCC3C1CC=C2C(=O)N1CCN(c2ccccn2)CC1 (stereo not drawn) [Compound 5]	8.43	–
CC12CCC3c4ccc(OS(N)(=O)=O)cc4CCC3C1CCC2C(=O)N1CCCC1 (stereo not drawn) [Compound 73]	–	8.22
CC12CCC3c4ccc(OS(N)(=O)=O)cc4CCC3C1CC=C2c1cccnc1 (stereo not drawn) [Compound 90]	7.92	–
C=CCNC(=O)C1=CCC2C3CCc4cc(OS(N)(=O)=O)ccc4C3CCC12C (stereo not drawn) [Compound 10]	–	8.25
Cc1coc(C2=CCC3C4CCc5cc(OS(N)(=O)=O)ccc5C4CCC23C)n1 (stereo not drawn) [Compound 92]	7.68	–
CC12CCC3c4ccc(OS(N)(=O)=O)cc4CCC3C1CC=C2C(=O)NCCCc1ccncc1 (stereo not drawn) [Compound 55]	8.35	–
COCCNC(=O)C1CCC2C3CCc4cc(OS(N)(=O)=O)ccc4C3CCC12C (stereo not drawn) [Compound 76]	–	7.81

Second part, the compound after the results:

pIC50 [1]	pIC50 [2]	SMILES
–	8.00	COC(=O)CCCCCNC(=O)C1=CCC2C3CCc4cc(OS(N)(=O)=O)ccc4C3CCC12C (stereo not drawn) [Compound 14]
7.77	–	COCCOCCOC(=O)C1=CCC2C3CCc4cc(OS(N)(=O)=O)ccc4C3CCC12C (stereo not drawn) [Compound 71]
7.59	–	CC(C)(CO)NC(=O)C1=CCC2C3CCc4cc(OS(N)(=O)=O)ccc4C3CCC12C (stereo not drawn) [Compound 23]
–	8.29	COC(=O)C1CCCN1C(=O)C1=CCC2C3CCc4cc(OS(N)(=O)=O)ccc4C3CCC12C (stereo not drawn) [Compound 33]
–	8.36	CC12CCC3c4ccc(OS(N)(=O)=O)cc4CCC3C1CC=C2C(=O)N1CCCC1 (stereo not drawn) [Compound 1]
–	8.55	COCCNC(=O)C1=CCC2C3CCc4cc(OS(N)(=O)=O)ccc4C3CCC12C (stereo not drawn) [Compound 18]
8.43	–	COc1ccc(NC(=O)C2=CCC3C4CCc5cc(OS(N)(=O)=O)ccc5C4CCC23C)cn1 (stereo not drawn) [Compound 39]
–	9.00	CC12CCC3c4ccc(OS(N)(=O)=O)cc4CCC3C1CC=C2C(=O)NC1CCCC1 (stereo not drawn) [Compound 7]
–	8.01	CC12CCC3c4ccc(OS(N)(=O)=O)cc4CCC3C1CC=C2C(=O)NCCCCO (stereo not drawn) [Compound 22]
–	8.44	CC12CCC3c4ccc(OS(N)(=O)=O)cc4CCC3C1CC=C2C(=O)NCC1CC1 (stereo not drawn) [Compound 9]
8.05	–	CCn1nccc1NC(=O)C1=CCC2C3CCc4cc(OS(N)(=O)=O)ccc4C3CCC12C (stereo not drawn) [Compound 62]
8.22	–	CC12CCC3c4ccc(OS(N)(=O)=O)cc4CCC3C1CC=C2C(=O)NCc1ccc(C(=O)O)cc1 (stereo not drawn) [Compound 37]
–	8.35	COC(=O)C(NC(=O)C1=CCC2C3CCc4cc(OS(N)(=O)=O)ccc4C3CCC12C)C(C)C (stereo not drawn) [Compound 29]
